How the values were obtained:
Assay type in all cases: in vivo
[1] = system: barnyardgrass (Echinochloa crus-galli L.): ECHCG; assay: Test Example 1 pre-emergence herbicidal activity, ECHCG; conditions: Rate 63 g a.i./ha, visually observed 20th to 23rd day after application
In short: (§1)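 Scoring was visual growth control (0 = untreated, 100 = complete kill) on days 20–23 post-application. Treatment came as a pre-emergence spray one day after sowing in upland soil, using wettable powder or emulsifiable concentrate diluted in 500 L/ha water at predetermined active-ingredient amounts.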

[2] = system: crabgrass (Digitaria sanguinalis L.): DIGSA; assay: Test Example 1 pre-emergence herbicidal activity, DIGSA; conditions: Rate 63 g a.i./ha, visually observed 20th to 23rd day after application
In short: as §1

[3] = system: green foxtail (Setaria viridis L.): SETVI; assay: Test Example 1 pre-emergence herbicidal activity, SETVI; conditions: Rate 63 g a.i./ha, visually observed 20th to 23rd day after application
In short: as §1

[4] = system: redroot pigweed (Amaranthus retroflexus L.): AMARE; assay: Test Example 1 pre-emergence herbicidal activity, AMARE; conditions: Rate 63 g a.i./ha, visually observed 20th to 23rd day after application
In short: as §1

[5] = system: prickly sida (Sida spinosa L.): SEDSP; assay: Test Example 1 pre-emergence herbicidal activity, SIDSP; conditions: Rate 63 g a.i./ha, visually observed 20th to 23rd day after application
In short: as §1

[6] = system: velvetleaf (Abutilon theophrasti): ABUTH; assay: Test Example 1 pre-emergence herbicidal activity, ABUTH; conditions: Rate 63 g a.i./ha, visually observed 20th to 23rd day after application
In short: as §1

[7] = system: rice (Oryza sativa L.): ORYSA; assay: Test Example 1 pre-emergence herbicidal activity, ORYSA; conditions: Rate 63 g a.i./ha, visually observed 20th to 23rd day after application
In short: as §1

[8] = system: wheat (Triticum aestivum L.): TRZAX; assay: Test Example 1 pre-emergence herbicidal activity, TRZAX; conditions: Rate 63 g a.i./ha, visually observed 20th to 23rd day after application
In short: as §1

[9] = system: corn (Zea mays L.): ZEAMX; assay: Test Example 1 pre-emergence herbicidal activity, ZEAMX; conditions: Rate 63 g a.i./ha, visually observed 20th to 23rd day after application
In short: as §1

[10] = system: soybean (Glycine max Merr.): GLXMA; assay: Test Example 1 pre-emergence herbicidal activity, GLXMA; conditions: Rate 63 g a.i./ha, visually observed 20th to 23rd day after application
In short: as §1

[11] = system: barnyardgrass (Echinochloa crus-galli L.), ECHCG; assay: Test Example 2 post-emergence (foliage treatment) herbicidal activity, ECHCG; conditions: 63 g a.i./ha
In short: (§2)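 Visual rating of growth control, from 0 (untreated-like) to 100 (complete kill), was done 20–23 days after post-emergence spraying. Wettable powder or emulsifiable concentrate was diluted to 500 L/ha with 0.1% (v/v) spreader. Leaf stages at application were 1.1-2.1 (ECHCG), 1.0-2.0 (DIGSA), 0.1-1.5 (AMARE) and 1.0-2 (ORYSA).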

[12] = system: crabgrass (Digitaria sanguinalis L.), DIGSA; assay: Test Example 2 post-emergence (foliage treatment) herbicidal activity, DIGSA; conditions: 63 g a.i./ha
In short: as §2

[13] = system: green foxtail (Setaria viridis L.), SETVI; assay: Test Example 2 post-emergence (foliage treatment) herbicidal activity, SETVI; conditions: 63 g a.i./ha
In short: (§3)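 Each species was evaluated for growth suppression by eye, 0% matching untreated and 100% meaning death, some 20 to 23 days after a single post-emergence foliar treatment applied in 500 L/ha of water carrying 0.1% (v/v) agricultural spreader.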

[14] = system: redroot pigweed (Amaranthus retroflexus L.), AMARE; assay: Test Example 2 post-emergence (foliage treatment) herbicidal activity, AMARE; conditions: 63 g a.i./ha
Description: Upland field soil was put into a 1/170,000 ha pot, and seeds of various plants were sown. Then, when the plants reached predetermined leaf stages {1. barnyardgrass (Echinochloa crus-galli L.), ECHCG: 1.1-2.1 leaf stage, 2. crabgrass (Digitaria sanguinalis L.), DIGSA: 1.0-2.0 leaf stage, 3. green foxtail (Setaria viridis L.), SETVI: 1.0-2.2 leaf stage, 4. redroot pigweed (Amaranthus retroflexus L.), AMARE: 0.1-1.5 leaf stage, 5. prickly sida (Sida spinosa L.), SIDSP: 0.1-0.6 leaf stage, 6. velvetleaf (Abutilon theophrasti), ABUTH: 0.1-0.6 leaf stage, 7. common cocklebur (Xanthium strumarium L.), XANST: 0.1 leaf stage, 8. rice (Oryza sativa L.), ORYSA; 1.0-2 leaf stage, 9. wheat (Triticum aestivum L.), TRZAX: 2.3-3.5 leaf stage, 10. corn (Zea mays L.), ZEAMXN 2.1-2.6 leaf stage, 11. soybean (Glycine max Merr.), GLXMA: primary leaf stage}, a wettable powder or emulsifiable concentrate having the compound of the present invention formulated in accordance with a usual formulation method, was weighed so that the active ingredient would be a predetermined amount, and diluted with water in an amount of 500 L/ha. To the diluted solution, 0.1% (v/v) of an agricultural spreader was added. The herbicide adjusted was applied by a small size sprayer for foliage treatment. On the 20th to 23rd day after the application of the herbicide, the growth of the respective plants was visually observed, and the herbicidal effects were evaluated by growth controlling degrees (%) ranging from 0 (equivalent to the untreated control) to 100 (complete kill), whereby the results shown in Table 5, were obtained. Compound Nos. in Table 5 correspond to Compound Nos. in Table 1 and 2 given hereinbefore.

[15] = system: prickly sida (Sida spinosa L.), SIDSP; assay: Test Example 2 post-emergence (foliage treatment) herbicidal activity, SIDSP; conditions: 63 g a.i./ha
In short: as §3

[16] = system: velvetleaf (Abutilon theophrasti), ABUTH; assay: Test Example 2 post-emergence (foliage treatment) herbicidal activity, ABUTH; conditions: 63 g a.i./ha
In short: as §3

[17] = system: rice (Oryza sativa L.), ORYSA; assay: Test Example 2 post-emergence (foliage treatment) herbicidal activity, ORYSA; conditions: 63 g a.i./ha
In short: as §2

[18] = system: wheat (Triticum aestivum L.), TRZAX; assay: Test Example 2 post-emergence (foliage treatment) herbicidal activity, TRZAX; conditions: 63 g a.i./ha
In short: as §3

[19] = system: corn (Zea mays L.), ZEAMX; assay: Test Example 2 post-emergence (foliage treatment) herbicidal activity, ZEAMX; conditions: 63 g a.i./ha
In short: as §3

[20] = system: soybean (Glycine max Merr.), GLXMA; assay: Test Example 2 post-emergence (foliage treatment) herbicidal activity, GLXMA; conditions: 63 g a.i./ha
In short: as §3

Row | Structure (SMILES) | Pre-emergence Herbicidal Activity ECHCG (growth controlling degree) [1] [%] | Pre-emergence Herbicidal Activity DIGSP (growth controlling degree) [2] [%] | Pre-emergence Herbicidal Activity SETVI (growth controlling degree) [3] [%] | Pre-emergence Herbicidal Activity AMARE (growth controlling degree) [4] [%] | Pre-emergence Herbicidal Activity SIDSP (growth controlling degree) [5] [%] | Pre-emergence Herbicidal Activity ABUTH (growth controlling degree) [6] [%] | Pre-emergence Herbicidal Activity ORYSA (growth controlling degree) [7] [%] | Pre-emergence Herbicidal Activity TRZAX (growth controlling degree) [8] [%] | Pre-emergence Herbicidal Activity ZEAMX (growth controlling degree) [9] [%] | Pre-emergence Herbicidal Activity GLXMA (growth controlling degree) [10] [%] | growth controlling degree, ECHCO [11] [%] | growth controlling degree, DIGSP [12] [%] | growth controlling degree, SETVI [13] [%] | growth controlling degree, AMARE [14] [%] | growth controlling degree, SIDSP [15] [%] | growth controlling degree, ABUTH [16] [%] | growth controlling degree, ORYSA [17] [%] | growth controlling degree, TRZAX [18] [%] | growth controlling degree, ZEAMX [19] [%] | growth controlling degree, GLXMA [20] [%]
1 | COc1c(Cl)cc(F)c(-c2nn(C)c(OC(F)F)c2Cl)c1NC(=O)C=Cc1cccc(C)c1 [Compound 1-254] | 60 | 60 | 50 | 100 | 60 | 50 | 20 | 0 | 0 | 0 | 80 | 60 | 95 | 100 | 100 | 100 | 90 | 30 | 30 | 70
2 | COc1c(Cl)cc(F)c(-c2nn(C)c(OC(F)F)c2Cl)c1NC(=O)C(C)(C)Oc1ccccc1 [Compound 1-38] | 0 | 10 | 20 | 20 | 0 | 0 | 0 | 0 | 0 | 0 | 50 | 20 | 50 | 100 | 100 | 100 | 40 | 10 | 10 | 30
3 | COc1c(Cl)cc(F)c(-c2nn(C)c(OC(F)F)c2Cl)c1NC(=O)CCc1ccccc1C [Compound 1-37] | 60 | 100 | 80 | 100 | 95 | 40 | 20 | 30 | 0 | 0 | 98 | 80 |  | 100 | 100 | 100 | 90 | 50 | 70 | 98
4 | COc1c(Cl)cc(F)c(-c2nn(C)c(OC(F)F)c2Cl)c1NCCc1cccc(C)c1 [Compound 1-50] | 70 | 100 | 100 | 100 | 100 | 100 | 20 | 30 | 10 | 10 | 100 | 90 |  | 100 | 100 | 100 | 95 | 70 | 80 | 95

— patent US20050245399A1, “Pyrazole derivatives as herbicidal compositions containing them” (ISHIHARA SANGYO KAISHA, LTD., priority 2004, published 2005)
